Experimental data published in US10329270B2, “Heteroaryl compounds as BTK inhibitors and uses thereof” (Merck Patent GmbH, priority 2013, dated 2019).

What follows are compounds tested against T1, full-length human BTK (Homo sapiens, UniProt Q06187) (assay: Assay A: BTK IC50 Enzyme Assay (microfluidic off-chip mobility shift kinase assay)). Settings: full-length human BTK, kinKDR peptide substrate, incubated 90 min at 27 C; read-out: Assay A (Time Dependent BTK Enzyme Assay IC50).
T1 construct: 2.5× stocks of full-length human BTK (08-080); purchased CarnaBio USA, Inc., Natick, Mass; 08-080
T1 sequence (Q06187 whole entry): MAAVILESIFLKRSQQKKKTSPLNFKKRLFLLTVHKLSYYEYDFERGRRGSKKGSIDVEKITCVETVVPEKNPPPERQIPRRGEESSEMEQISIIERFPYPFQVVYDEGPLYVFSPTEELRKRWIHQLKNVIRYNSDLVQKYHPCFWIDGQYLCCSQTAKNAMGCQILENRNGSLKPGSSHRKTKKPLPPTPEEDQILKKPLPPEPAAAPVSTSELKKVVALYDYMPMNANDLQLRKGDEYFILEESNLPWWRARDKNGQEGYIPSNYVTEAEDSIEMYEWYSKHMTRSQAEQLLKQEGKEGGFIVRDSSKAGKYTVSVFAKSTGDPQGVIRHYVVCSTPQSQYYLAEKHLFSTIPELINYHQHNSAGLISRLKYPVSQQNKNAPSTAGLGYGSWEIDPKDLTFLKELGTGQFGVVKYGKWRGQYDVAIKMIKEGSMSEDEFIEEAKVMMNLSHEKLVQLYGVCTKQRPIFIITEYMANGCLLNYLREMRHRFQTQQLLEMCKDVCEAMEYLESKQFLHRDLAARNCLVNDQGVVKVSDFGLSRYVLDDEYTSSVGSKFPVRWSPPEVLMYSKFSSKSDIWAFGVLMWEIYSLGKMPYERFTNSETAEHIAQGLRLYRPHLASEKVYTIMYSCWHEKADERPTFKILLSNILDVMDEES
Assay type: biochemical
How it was run: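 Off-chip microfluidic mobility shift assay with full-length human BTK; phosphorylated and unphosphorylated peptide substrate were separated by charge/mass on a LabChip 3000.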

Compound | IC50 [nM]
C/C=C/C(=O)N1CC2CN(c3cnc(Oc4ccc(Oc5cccc(F)c5)cc4)c(C(N)=O)c3)CC2C1 (centres unmarked) [Compound 235, 5-[5-((E)-But-2-enoyl)-hexahydro-pyrrolo[3,4-c]pyrrol-2-yl]-2-[4-(3-fluoro-phenoxy)-phenoxy]-nicotinamide] | > 5000
C=CC(=O)N[C@H]1CCN(c2nc(Nc3ccc(F)c(C)c3)ccc2C(N)=O)C1 [Compound 157, 2-((S)-3-Acryloylamino-pyrrolidin-1-yl)-6-(4-fluoro-3-methyl-phenylamino)-nicotinamide] | < 100
C=CC(=O)N1CCC(c2ccc(C(N)=O)c(Nc3ccc(C)nc3)n2)CC1 [Compound 49] | < 100
C=CC(=O)N1CCC(Nc2ncc(C(N)=O)c(N)n2)C1 (centres unmarked) [Compound 141, 2-(1-Acryloyl-pyrrolidin-3-ylamino)-4-amino-pyrimidine-5-carboxylic acid amide] | 100 to 1000
N#CN1CCC(Nc2cnc(Oc3ccc(Oc4ccc(F)cc4F)cc3)c(C(N)=O)c2)C1 (centres unmarked) [Compound 250, 5-[(1-cyanopyrrolidin-3-yl)amino]-2-[4-(2,4-difluorophenoxy)phenoxy]pyridine-3-carboxamide] | 1000 to 5000
C=CC(=O)N[C@H]1CCN(c2ccc(C(N)=O)c(Nc3ccc(N4CC(C)OC(C)C4)c(F)c3)n2)C1 (stereo partly drawn) [Compound 27, 6-((S)-3-Acryloylamino-pyrrolidin-1-yl)-2-[4-(2,6-dimethyl-morpholin-4-yl)-3-fluoro-phenylamino]-nicotinamide] | < 100
C=CC(=O)N[C@@H]1CCN(c2ccc(C(N)=O)c(N)n2)C1 [Compound 61, 6-((R)-3-Acryloylamino-pyrrolidin-1-yl)-2-amino-nicotinamide] | 1000 to 5000
C=CC(=O)N1C[C@@H]2C[C@H]1CN2c1ccc(C(N)=O)c(Nc2cccnc2)n1 [Compound 15, 6-((1S,4S)-5-acryloyl-2,5-diazabicyclo[2.2.1]heptan-2-yl)-2-(pyridin-3-ylamino)nicotinamide] | < 100
C=CC(=O)N[C@H]1CCN(c2ccc(C(N)=O)c(Nc3ccc(C(=O)N4CCOCC4)cc3)n2)C1 [Compound 35, 6-((S)-3-Acryloylamino-pyrrolidin-1-yl)-2-[4-(morpholine-4-carbonyl)-phenylamino]-nicotinamide] | < 100
C=CC(=O)N[C@H]1CCN(c2nc(Nc3ccc(N4C[C@@H](C)O[C@@H](C)C4)nc3)c(C(N)=O)cc2F)C1 [Compound 6, 6-((S)-3-Acryloylamino-pyrrolidin-1-yl)-2-[6-(cis-2,6-dimethyl-morpholin-4-yl)-pyridin-3-ylamino]-5-fluoro-nicotinamide] | 1000 to 5000
C=CC(=O)N[C@H]1CCN(c2ccc(C(N)=O)c(Oc3cnn(Cc4ccccc4)c3)n2)C1 [Compound 97] | 1000 to 5000
C=CC(=O)N[C@@H]1CCN(c2ccc(C(N)=O)c(Nc3ccc(C(=O)N4CCOCC4)cc3)n2)C1 [Compound 47, 6-((R)-3-Acryloylamino-pyrrolidin-1-yl)-2-[4-(morpholine-4-carbonyl)-phenylamino]-nicotinamide] | < 100
C=CC(=O)N[C@H]1CCN(c2ccc(C(N)=O)c(Nc3ccc(N4CCCC4)nc3)n2)C1 [Compound 41, 6-((S)-3-Acryloylamino-pyrrolidin-1-yl)-2-(6-pyrrolidin-1-yl-pyridin-3-ylamino)-nicotinamide] | < 100
C=CC(=O)N[C@H]1CCN(c2ccc(C(N)=O)c(Nc3cncc(F)c3)n2)C1 [Compound 51, 6-((S)-3-Acryloylamino-pyrrolidin-1-yl)-2-(5-fluoro-pyridin-3-ylamino)-nicotinamide] | < 100
C=CC(=O)N1CCC2(CCN(c3cnc(Oc4ccc(Oc5cccc(F)c5)cc4)c(C(N)=O)c3)C2)C1 (centres unmarked) [Compound 233, 5-(7-acryloyl-2,7-diazaspiro[4.4]nonan-2-yl)-2-(4-(3-fluorophenoxy)phenoxy)nicotinamide] | 100 to 1000
C=CC(=O)N1CCn2ncc(-c3cnc(C(N)=O)nc3)c2C1 [Compound 154] | > 5000
C=CC(=O)N[C@H]1CCN(c2cc(Oc3ccc(C(=O)Nc4ccccc4)cc3)c(C(N)=O)cn2)C1 [Compound 116, (S)-6-(3-acrylamidopyrrolidin-1-yl)-4-(4-(phenylcarbamoyl)phenoxy)nicotinamide] | 1000 to 5000
C=CC(=O)N1CC=C(c2cncc(C(N)=O)c2Nc2ccc(N3C[C@@H](C)O[C@@H](C)C3)nc2)CC1 [Compound 168, 1′-Acryloyl-4-[6-(cis-2,6-dimethyl-morpholin-4-yl)-pyridin-3-ylamino]-1′,2′,3′,6′-tetrahydro-[3,4′]bipyridinyl-5-carboxylic acid amide] | 1000 to 5000
C=CC(=O)NC1CCN(c2cnc(Oc3ccc(Oc4cccc(F)c4)cc3)c(C(N)=O)c2)C1 (centres unmarked) [Compound 219, 5-(3-Acryloylamino-pyrrolidin-1-yl)-2-[4-(3-fluoro-phenoxy)-phenoxy]-nicotinamide] | 100 to 1000

The next lines start with the values.

IC50 [nM] | Compound
100 to 1000 | C=CC(=O)N1CC[C@@H](N(C)c2ccc(C(N)=O)c(Oc3ccc(Oc4ccccc4)cc3)n2)C1 [Compound 187, 6-[((R)-1-Acryloyl-pyrrolidin-3-yl)-methyl-amino]-2-(4-phenoxy-phenoxy)-nicotinamide]
1000 to 5000 | C=CC(=O)N1C[C@@H]2C[C@H]1CN2c1cnc(C(N)=O)c(Oc2ccc(Oc3ccccc3)cc2)n1 [Compound 135, 5-((1S,4S)-5-Acryloyl-2,5-diaza-bicyclo[2.2.1]hept-2-yl)-3-(4-phenoxy-phenoxy)-pyrazine-2-carboxylic acid amide]
100 to 1000 | C=CC(=O)N1CCC(c2ncc(C(N)=O)c(Oc3ccc(Oc4ccccc4)cc3)n2)C1 (centres unmarked) [Compound 150, 2-(1-Acryloyl-pyrrolidin-3-yl)-4-(4-phenoxy-phenoxy)-pyrimidine-5-carboxylic acid amide]
< 100 | C=CC(=O)N[C@H]1CCN(c2cc(Oc3ccc(Oc4ccccc4)cc3)c(C(N)=O)cn2)C1 [Compound 109, 6-((S)-3-Acryloylamino-pyrrolidin-1-yl)-4-(4-phenoxy-phenoxy)-nicotinamide]
< 100 | C=CC(=O)N1CCC(Nc2cnc(Oc3ccc(Oc4cccc(F)c4)cc3)c(C(N)=O)c2)CC1 [Compound 228, 5-(1-Acryloyl-piperidin-4-ylamino)-2-[4-(3-fluoro-phenoxy)-phenoxy]-nicotinamide]
< 100 | C=CC(=O)N1CC2CCC1CN2c1ncc(C(N)=O)c(Oc2ccc(Oc3ccccc3)cc2)n1 (centres unmarked) [Compound 225, 2-(5-acryloyl-2,5-diazabicyclo[2.2.2]octan-2-yl)-4-(4-phenoxyphenoxy)pyrimidine-5-carboxamide]
100 to 1000 | C=CC(=O)NC1CCN(c2cnc(Oc3ccc(Oc4ccccc4)cc3)c(C(N)=O)c2)C1 (centres unmarked) [Compound 196, 5-(3-Acryloylamino-pyrrolidin-1-yl)-2-(4-phenoxy-phenoxy)-nicotinamide]
< 100 | C=CC(=O)N1CCC(c2cc(Oc3ccc(Oc4ccc(C)cc4)cc3)c(C(N)=O)cn2)C1 (centres unmarked) [Compound 110, 6-(1-acryloylpyrrolidin-3-yl)-4-(4-(p-tolyloxy)phenoxy)nicotinamide]
100 to 1000 | N#CN1CCC[C@@H](c2cnc(Oc3ccc(Oc4ccccc4)cc3)c(C(N)=O)c2)C1 [Compound 240, (S)-5-(1-cyanopiperidin-3-yl)-2-(4-phenoxyphenoxy)nicotinamide]
100 to 1000 | N#CN1CCC(Nc2cnc(Oc3ccc(Oc4ccccc4)cc3)c(C(N)=O)c2)C1 (centres unmarked) [Compound 243, 5-[(1-cyanopyrrolidin-3-yl)amino]-2-(4-phenoxyphenoxy)pyridine-3-carboxamide]
